Results from ChEMBL document CHEMBL4251634, “Synthesis and antimicrobial activity of pyrimidinyl 1,3,4-oxadiazoles, 1,3,4-thiadiazoles and 1,2,4-triazoles” (2018).
Calls of active or inactive are those of the source. The rule behind the calls is not given here.

Columns and labels:
Format in all cases: functional
Staphylococcus aureus [1] = assay: Antibacterial activity against Staphylococcus aureus assessed as diameter of inhibition zone at 12.5 ug/well after 24 hrs by agar well diffusion method
Staphylococcus aureus [2] = assay: Antibacterial activity against Staphylococcus aureus assessed as diameter of inhibition zone at 25 ug/well after 24 hrs by agar well diffusion method
Staphylococcus aureus [3] = assay: Antibacterial activity against Staphylococcus aureus assessed as diameter of inhibition zone at 50 ug/well after 24 hrs by agar well diffusion method
Staphylococcus aureus [4] = assay: Antibacterial activity against Staphylococcus aureus assessed as diameter of inhibition zone at 100 ug/well after 24 hrs by agar well diffusion method
Bacillus subtilis [5] = assay: Antibacterial activity against Bacillus subtilis assessed as diameter of inhibition zone at 12.5 ug/well after 24 hrs by agar well diffusion method
Bacillus subtilis [6] = assay: Antibacterial activity against Bacillus subtilis assessed as diameter of inhibition zone at 25 ug/well after 24 hrs by agar well diffusion method; settings: for zone of inhibition at 25 µg/disc: read-out: DIZ
Bacillus subtilis [7] = assay: Antibacterial activity against Bacillus subtilis assessed as diameter of inhibition zone at 50 ug/well after 24 hrs by agar well diffusion method; settings: for zone of inhibition at 50 µg/disc: read-out: DIZ
Bacillus subtilis [8] = assay: Antibacterial activity against Bacillus subtilis assessed as diameter of inhibition zone at 100 ug/well after 24 hrs by agar well diffusion method; settings: for zone of inhibition at 100 µg/disc: read-out: DIZ
Pseudomonas aeruginosa [9] = assay: Antibacterial activity against Pseudomonas aeruginosa assessed as diameter of inhibition zone at 12.5 ug/well after 24 hrs by agar well diffusion method; settings: for zone of inhibition at 12.5 µg/disc: read-out: DIZ
Pseudomonas aeruginosa [10] = assay: Antibacterial activity against Pseudomonas aeruginosa assessed as diameter of inhibition zone at 25 ug/well after 24 hrs by agar well diffusion method; settings: for zone of inhibition at 25 µg/disc: read-out: DIZ
Pseudomonas aeruginosa [11] = assay: Antibacterial activity against Pseudomonas aeruginosa assessed as diameter of inhibition zone at 50 ug/well after 24 hrs by agar well diffusion method; settings: read-out: DIZ
Pseudomonas aeruginosa [12] = assay: Antibacterial activity against Pseudomonas aeruginosa assessed as diameter of inhibition zone at 100 ug/well after 24 hrs by agar well diffusion method; settings: read-out: DIZ
Klebsiella pneumoniae [13] = assay: Antibacterial activity against Klebsiella pneumoniae assessed as diameter of inhibition zone at 12.5 ug/well after 24 hrs by agar well diffusion method; settings: for zone of inhibition at 12.5 µg/disc: read-out: DIZ
Klebsiella pneumoniae [14] = assay: Antibacterial activity against Klebsiella pneumoniae assessed as diameter of inhibition zone at 25 ug/well after 24 hrs by agar well diffusion method; settings: for zone of inhibition at 25 µg/disc: read-out: DIZ
Klebsiella pneumoniae [15] = assay: Antibacterial activity against Klebsiella pneumoniae assessed as diameter of inhibition zone at 50 ug/well after 24 hrs by agar well diffusion method; settings: for zone of inhibition at 50 µg/disc: read-out: DIZ
Klebsiella pneumoniae [16] = assay: Antibacterial activity against Klebsiella pneumoniae assessed as diameter of inhibition zone at 100 ug/well after 24 hrs by agar well diffusion method; settings: read-out: DIZ
Aspergillus niger [17] = assay: Antifungal activity against Aspergillus niger assessed as diameter of inhibition zone at 12.5 ug/well after 48 hrs by agar well diffusion method; settings: for zone of inhibition at 12.5 µg/disc: read-out: DIZ
Aspergillus niger [18] = assay: Antifungal activity against Aspergillus niger assessed as diameter of inhibition zone at 25 ug/well after 48 hrs by agar well diffusion method; settings: for zone of inhibition at 25 µg/disc: read-out: DIZ
Aspergillus niger [19] = assay: Antifungal activity against Aspergillus niger assessed as diameter of inhibition zone at 50 ug/well after 48 hrs by agar well diffusion method; settings: for zone of inhibition at 50 µg/disc: read-out: DIZ
Aspergillus niger [20] = assay: Antifungal activity against Aspergillus niger assessed as diameter of inhibition zone at 100 ug/well after 48 hrs by agar well diffusion method; settings: for zone of inhibition at 100 µg/disc: read-out: DIZ
Penicillium chrysogenum [21] = assay: Antifungal activity against Penicillium chrysogenum assessed as diameter of inhibition zone at 12.5 ug/well after 48 hrs by agar well diffusion method
Penicillium chrysogenum [22] = assay: Antifungal activity against Penicillium chrysogenum assessed as diameter of inhibition zone at 25 ug/well after 48 hrs by agar well diffusion method
Penicillium chrysogenum [23] = assay: Antifungal activity against Penicillium chrysogenum assessed as diameter of inhibition zone at 50 ug/well after 48 hrs by agar well diffusion method; settings: for zone of inhibition at 50 µg/disc: read-out: DIZ
Penicillium chrysogenum [24] = assay: Antifungal activity against Penicillium chrysogenum assessed as diameter of inhibition zone at 100 ug/well after 48 hrs by agar well diffusion method; settings: for zone of inhibition at 100 µg/disc: read-out: DIZ
Staphylococcus aureus [25] = assay: Antibacterial activity against Staphylococcus aureus after 24 hrs by turbidity-based broth dilution assay
Pseudomonas aeruginosa [26] = assay: Antibacterial activity against Pseudomonas aeruginosa after 24 hrs by turbidity-based broth dilution assay
Klebsiella pneumoniae [27] = assay: Antibacterial activity against Klebsiella pneumoniae after 24 hrs by turbidity-based broth dilution assay

| SMILES | diameter of the inhibition zone (DIZ) (Staphylococcus aureus [1]) | diameter of the inhibition zone (DIZ) (Staphylococcus aureus [2]) | diameter of the inhibition zone (DIZ) (Staphylococcus aureus [3]) | diameter of the inhibition zone (DIZ) (Staphylococcus aureus [4]) | diameter of the inhibition zone (DIZ) (Bacillus subtilis [5]) | diameter of the inhibition zone (DIZ) (Bacillus subtilis [6]) | zone of inhibition at 50 µg/disc (Bacillus subtilis [7]) [mm] | zone of inhibition at 100 µg/disc (Bacillus subtilis [8]) [mm] | zone of inhibition at 12.5 µg/disc (Pseudomonas aeruginosa [9]) [mm] | zone of inhibition at 25 µg/disc (Pseudomonas aeruginosa [10]) [mm] | zone of inhibition at 50 µg/disc (Pseudomonas aeruginosa [11]) [mm] | zone of inhibition at 100 µg/disc (Pseudomonas aeruginosa [12]) [mm] | zone of inhibition at 12.5 µg/disc (Klebsiella pneumoniae [13]) [mm] | zone of inhibition at 25 µg/disc (Klebsiella pneumoniae [14]) [mm] | zone of inhibition at 50 µg/disc (Klebsiella pneumoniae [15]) [mm] | zone of inhibition at 100 µg/disc (Klebsiella pneumoniae [16]) [mm] | zone of inhibition at 12.5 µg/disc (Aspergillus niger [17]) [mm] | zone of inhibition at 25 µg/disc (Aspergillus niger [18]) [mm] | zone of inhibition at 50 µg/disc (Aspergillus niger [19]) [mm] | zone of inhibition at 100 µg/disc (Aspergillus niger [20]) [mm] | also measured |
| --- | --- | --- | --- | --- | --- | --- | --- | --- | --- | --- | --- | --- | --- | --- | --- | --- | --- | --- | --- | --- | --- |
| Cc1cc(SCc2nnc(-c3ccc(Cl)cc3)o2)nc(SCc2nnc(-c3ccc(Cl)cc3)o2)n1 | inactive | inactive | inactive | inactive | inactive | inactive | 7 | 9 | 10 | 12 | 14 | 17 | 10 | 11 | 13 | 16 | 18 | 20 | 22 | 25 | zone of inhibition at 12.5 µg/disc (Penicillium chrysogenum [21]; read-out: DIZ): 11 mm; zone of inhibition at 25 µg/disc (Penicillium chrysogenum [22]; read-out: DIZ): 13 mm; zone of inhibition at 50 µg/disc (Penicillium chrysogenum [23]): 15 mm; zone of inhibition at 100 µg/disc (Penicillium chrysogenum [24]): 17 mm |
| O=C(N[C@H](CO)[C@H](O)c1ccc([N+](=O)[O-])cc1)C(Cl)Cl [CHLORAMPHENICOL] | – | – | – | – | – | – | 36 | 40 | 25 | 27 | 29 | 32 | 38 | 40 | 42 | 44 | – | – | – | – | zone of inhibition at 12.5 µg/disc (Staphylococcus aureus [1]; read-out: DIZ): 30 mm; zone of inhibition at 25 µg/disc (Staphylococcus aureus [2]; read-out: DIZ): 32 mm; zone of inhibition at 50 µg/disc (Staphylococcus aureus [3]; read-out: DIZ): 35 mm; zone of inhibition at 100 µg/disc (Staphylococcus aureus [4]; read-out: DIZ): 37 mm; zone of inhibition at 12.5 µg/disc (Bacillus subtilis [5]; read-out: DIZ): 32 mm; zone of inhibition at 25 µg/disc (Bacillus subtilis [6]): 34 mm; MIC (Staphylococcus aureus [25]): 6.25 µg; MIC (Pseudomonas aeruginosa [26]): 6.25 µg; MIC (Klebsiella pneumoniae [27]): 12.5 µg |
| COc1ccc(-c2nnc(CSc3cc(C)nc(SCc4nnc(-c5ccc(OC)cc5)s4)n3)s2)cc1 | inactive | inactive | inactive | inactive | inactive | inactive | – | – | – | – | 8 | 10 | – | – | – | 13 | – | – | – | – | diameter of the inhibition zone (DIZ) (Bacillus subtilis [7]): inactive; diameter of the inhibition zone (DIZ) (Bacillus subtilis [8]): inactive; diameter of the inhibition zone (DIZ) (Pseudomonas aeruginosa [9]): inactive; diameter of the inhibition zone (DIZ) (Pseudomonas aeruginosa [10]): inactive; diameter of the inhibition zone (DIZ) (Klebsiella pneumoniae [13]): inactive; diameter of the inhibition zone (DIZ) (Klebsiella pneumoniae [14]): inactive; diameter of the inhibition zone (DIZ) (Klebsiella pneumoniae [15]): inactive; diameter of the inhibition zone (DIZ) (Aspergillus niger [17]): inactive; diameter of the inhibition zone (DIZ) (Aspergillus niger [18]): inactive; diameter of the inhibition zone (DIZ) (Aspergillus niger [19]): inactive; diameter of the inhibition zone (DIZ) (Aspergillus niger [20]): inactive; diameter of the inhibition zone (DIZ) (Penicillium chrysogenum [21]): inactive; diameter of the inhibition zone (DIZ) (Penicillium chrysogenum [22]): inactive; diameter of the inhibition zone (DIZ) (Penicillium chrysogenum [23]): inactive; diameter of the inhibition zone (DIZ) (Penicillium chrysogenum [24]): inactive |
| Cc1ccc(-c2nnc(CSc3cc(C)nc(SCc4nnc(-c5ccc(C)cc5)n4N)n3)n2N)cc1 | inactive | inactive | inactive | inactive | inactive | – | 9 | 11 | 9 | 11 | 14 | 18 | 12 | 13 | 15 | 18 | 10 | 12 | 14 | 16 | zone of inhibition at 25 µg/disc (Bacillus subtilis [6]): 7 mm; diameter of the inhibition zone (DIZ) (Penicillium chrysogenum [21]): inactive; diameter of the inhibition zone (DIZ) (Penicillium chrysogenum [22]): inactive; zone of inhibition at 50 µg/disc (Penicillium chrysogenum [23]): 8 mm; zone of inhibition at 100 µg/disc (Penicillium chrysogenum [24]): 10 mm |
